From paper PMC3366916, “Characterization of a Conserved Interaction between DNA Glycosylase and ParA in Mycobacterium smegmatis and M. tuberculosis” (PLoS ONE, 2012)

Key:
MsTAG (Ms5082) = molecular target: T1, MsTAG (Ms5082) (Mycolicibacterium smegmatis, UniProt A0R2E4); experiment: malachite green phosphate release ATPase assay; format: biochemical; conditions: 200 uM ATP, 150 nM protein, 1 mM MgCl2, 50 mM HEPES pH 8.0, 37 C
T1 construct: gene tag; recombinant, E. coli BL21, pET28a (6xHis) or pGEX-4T-1 (GST)
T1 sequence (A0R2E4 1-209): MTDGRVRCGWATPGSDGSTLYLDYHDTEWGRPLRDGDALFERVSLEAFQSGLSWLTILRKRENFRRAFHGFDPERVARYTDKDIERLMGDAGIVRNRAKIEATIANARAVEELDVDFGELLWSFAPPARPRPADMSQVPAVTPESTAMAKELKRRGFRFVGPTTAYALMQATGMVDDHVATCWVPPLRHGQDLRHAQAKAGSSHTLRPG

MtTAG (Rv1210) = molecular target: T2, MtTAG (Rv1210) (Mycobacterium tuberculosis, UniProt O05311)
T2 construct: gene tagA

MsParA (Ms6939) = molecular target: T3, MsParA (Ms6939) (Mycolicibacterium smegmatis, UniProt A0R7J4); experiment: malachite green phosphate release ATPase assay; format: biochemical; conditions: 200 uM ATP, 150 nM protein, 1 mM MgCl2, 50 mM HEPES pH 8.0, 37 C
T3 construct: gene MSMEG_6939; recombinant, E. coli BL21, pET28a (6xHis) or pGEX-4T-1 (GST)
T3 sequence (A0R7J4 1-323): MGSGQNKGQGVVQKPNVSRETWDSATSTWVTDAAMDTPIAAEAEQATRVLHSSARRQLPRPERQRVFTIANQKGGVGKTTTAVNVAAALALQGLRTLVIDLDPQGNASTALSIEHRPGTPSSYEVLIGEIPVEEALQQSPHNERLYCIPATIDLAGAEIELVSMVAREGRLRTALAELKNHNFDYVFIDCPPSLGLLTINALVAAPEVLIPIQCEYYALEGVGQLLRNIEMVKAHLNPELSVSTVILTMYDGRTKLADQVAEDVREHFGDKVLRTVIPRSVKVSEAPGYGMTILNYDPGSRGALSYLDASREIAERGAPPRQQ

T2 sequence (O05311 entry or part of it): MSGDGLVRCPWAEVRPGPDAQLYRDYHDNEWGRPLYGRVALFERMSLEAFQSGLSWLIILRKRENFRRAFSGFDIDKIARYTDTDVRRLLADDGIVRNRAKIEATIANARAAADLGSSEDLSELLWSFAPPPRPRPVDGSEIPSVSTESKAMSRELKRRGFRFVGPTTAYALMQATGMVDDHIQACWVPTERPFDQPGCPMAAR

## Nc1ncnc2c1ncn2[C@@H]1O[C@H](COP(=O)(O)OP(=O)(O)OP(=O)(O)O)[C@@H](O)[C@H]1O [ATP]
MsTAG (Ms5082)
  malachite green phosphate release ATPase assay: MsTAG was found to have stronger ATPase activity than MsParA under the same conditions
MtTAG (Rv1210)
  malachite green phosphate release ATPase assay: MtTAG had an obvious ATPase activity but Rv1210-K78A, its mutant variant, did not
MsParA (Ms6939)
  malachite green phosphate release ATPase assay: verifying that MsParA had ATPase activity (Fig. 5A)
